pKi: −log10 of the molar value.
Biological target: T1, hMC2 receptor (crude hMC2R membranes from CRE-bla-CHO-K1 cells stably expressing hMC2 receptor and hMRAP accessory protein) (Homo sapiens, UniProt Q01718)
T1 construct: crude membrane fractions
Experiment: hMC2 membrane binding assay ([125I]ACTH (1-39) Tyr23, SPA)
Details: displacement of 0.2 nM [125I]ACTH (1-39) Tyr23 from hMC2R membranes, 1.5 hours at room temperature; read-out: MC2R binding potency
Method: Crude membrane fractions are prepared from CRE-bla-CHO-K1 cells stably expressing hMC2 receptor and hMRAP accessory protein (Thermo Fisher). The cells are grown to 85-100% confluence on standard tissue culture dishes in GlutaMax DMEM growth media (Gibco) with following additives: 10% dialyzed FBS (Gemini), 0.1 mM NEAA (Gibco), 25 mM HEPES (Gibco), 5 μg/mL blasticidin (Goldbio), 100 μg/mL zeocin (Invitrogen), 600 μg/mL hygromycin (Goldbio). To prepare membranes, cells are scraped and collected in 1× Dulbecco's phosphate buffered saline (Corning) and then pelleted at 1000 RPM's. The cell pellet is reconstituted in membrane preparation buffer (20 mM HEPES, 6 mM MgCl2 and 1 mM EGTA, protease inhibitor tablets (Pierce) adjusted to pH 7.4), homogenized using a dounce homogenizer, and the resulting membrane fraction is pelleted by centrifugation at 12,000 RPM's. The membrane pellet is resuspended in membrane preparation buffer, snap freezed and stored at −80° C. for later use.
Binding Assay for hMC2 Antagonists Protocol:
The hMC2 membrane binding assay utilizes the following components: radiolabel [^125I]ACTH (1-39) Tyr23 (PerkinElmer), wheatgerm agglutinin coated PVT SPA beads (PerkinElmer), crude hMC2R membranes, and compounds. Briefly hMC2R membranes are incubated with SPA beads in binding assay buffer (50 mM HEPES, 5 mM MgCl2, 1 mM CaCl2), 0.20% BSA, protease inhibitor tablets (Pierce) adjusted to pH7.4) prior to assay initiation. […] Assay plates are read using a Top Count NXT and Ki values for compounds are determined using a GraphPad Prism 6 non-linear regression analysis.

T1 sequence (Q01718 whole entry): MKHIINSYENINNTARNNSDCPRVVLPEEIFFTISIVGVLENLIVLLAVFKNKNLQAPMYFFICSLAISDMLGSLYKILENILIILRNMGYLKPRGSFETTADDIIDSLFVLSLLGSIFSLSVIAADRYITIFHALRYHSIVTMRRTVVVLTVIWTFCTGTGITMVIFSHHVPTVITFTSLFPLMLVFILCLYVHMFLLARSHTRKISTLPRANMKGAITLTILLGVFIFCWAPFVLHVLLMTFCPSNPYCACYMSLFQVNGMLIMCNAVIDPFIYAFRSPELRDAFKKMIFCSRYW
T1 sequence (Q8TCY5 whole entry partner): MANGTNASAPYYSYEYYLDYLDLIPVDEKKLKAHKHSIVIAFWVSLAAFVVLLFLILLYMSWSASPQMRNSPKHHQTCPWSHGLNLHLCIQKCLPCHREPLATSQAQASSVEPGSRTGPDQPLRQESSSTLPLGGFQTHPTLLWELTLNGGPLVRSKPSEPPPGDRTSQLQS

Compound | pKi
CCOc1ncccc1-c1ccc(C2(C(=O)N[C@H]3CCN(C)C3)CCN(c3ncc(C(F)(F)F)cc3Cl)CC2)cn1 [Compound 1-150, 1-[3-chloro-5-(trifluoromethyl)pyridin-2-yl]-4-{2′-ethoxy-[2,3′-bipyridin]-5-yl}-N-[(3S)-1-methylpyrrolidin-3-yl]piperidine-4-carboxamide] | 7.00 to 8.00
Cn1cccc1-c1ccc(C2(NC(=O)[C@H]3CCNC3)CCN(c3ccc(C(F)(F)F)cc3C#N)CC2)cn1 [Compound 2-44, (3S)—N-{1-[2-cyano-4-(trifluoromethyl)phenyl]-4-[6-(1-methyl-1H-pyrrol-2-yl)pyridin-3-yl]piperidin-4-yl}pyrrolidine-3-carboxamide] | > 8.00
CCOc1ncccc1-c1ccc(C2(NC(=O)[C@@H]3CCNC3)CCN(c3ccc(C(F)(F)F)cc3C#N)CC2)cn1 [Compound 2-6, (3R)—N-{1-[2-cyano-4-(trifluoromethyl)phenyl]-4-{2′-ethoxy-[2,3′-bipyridin]-5-yl}piperidin-4-yl}pyrrolidine-3-carboxamide] | > 8.00
COc1ccccc1-c1ccc(C2(C(=O)N[C@H]3CCN(C)C3)CCN(c3ccc(C(F)(F)F)cc3Cl)CC2)cn1 [Compound 1-144, 1-[2-chloro-4-(trifluoromethyl)phenyl]-4-[6-(2-methoxyphenyl)pyridin-3-yl]-N-[(3S)-1-methylpyrrolidin-3-yl]piperidine-4-carboxamide] | > 8.00
CCOc1ncccc1-c1ccc(C2(C(=O)N[C@@H](C)CN(C)C)CCN(c3ccc(Cl)cc3Cl)CC2)cn1 [Compound 1-318, 1-(2,4-dichlorophenyl)-N-[(2S)-1-(dimethylamino)propan-2-yl]-4-{2′-ethoxy-[2,3′-bipyridin]-5-yl}piperidine-4-carboxamide] | > 8.00
CCOc1ccccc1-c1ccc(C2(C(=O)N[C@H]3CCN(C)C3)CCN(c3ccc(C(F)(F)F)cc3F)CC2)nn1 [Compound 1-174, 4-[6-(2-ethoxyphenyl)pyridazin-3-yl]-1-[2-fluoro-4-(trifluoromethyl)phenyl]-N-[(3S)-1-methylpyrrolidin-3-yl]piperidine-4-carboxamide] | > 8.00
CCOc1ncccc1-c1ccc(C2(C(=O)N[C@@H]3CCNC3)CCN(c3ccc(C(F)(F)F)cc3C#N)CC2)cc1 [Compound 1-2, 1-[2-cyano-4-(trifluoromethyl)phenyl]-4-[4-(2-ethoxypyridin-3-yl)phenyl]-N-[(3R)-pyrrolidin-3-yl]piperidine-4-carboxamide] | > 8.00
CN1CC[C@H](NC(=O)C2(c3ccc(-c4cccnc4C4CC4)nc3)CCN(c3ccc(C(F)(F)F)cc3C#N)CC2)C1 [Compound 1-180, 1-[2-cyano-4-(trifluoromethyl)phenyl]-4-{2′-cyclopropyl-[2,3′-bipyridin]-5-yl}-N-[(3S)-1-methylpyrrolidin-3-yl]piperidine-4-carboxamide] | > 8.00
CCOc1ncccc1-c1ccc(C2(NC(=O)N[C@H]3CCN(C)C3)CCN(c3ccc(C(F)(F)F)cc3C#N)CC2)cn1 [Compound 2-20, 1-{1-[2-cyano-4-(trifluoromethyl)phenyl]-4-{2′-ethoxy-[2,3′-bipyridin]-5-yl}piperidin-4-yl}-3-[(3S)-1-methylpyrrolidin-3-yl]urea] | > 8.00
CCOc1ncccc1-c1ncc(C2(C(=O)N[C@@H](C)CNC)CCN(c3ccc(C(F)(F)F)cc3C#N)CC2)cc1F [Compound 1-320, 1-[2-cyano-4-(trifluoromethyl)phenyl]-4-{2′-ethoxy-3-fluoro-[2,3′-bipyridin]-5-yl}-N-[(2S)-1-(methylamino)propan-2-yl]piperidine-4-carboxamide] | > 8.00
COc1ncccc1-c1ncc(C2(C(=O)NCCN(C)C)CCN(c3ccc(C(F)(F)F)cc3F)CC2)cc1F [Compound 1-300, N-[2-(dimethylamino)ethyl]-4-{3-fluoro-2′-methoxy-[2,3′-bipyridin]-5-yl}-1-[2-fluoro-4-(trifluoromethyl)phenyl]piperidine-4-carboxamide] | > 8.00
CCOc1ccccc1-c1ccc(C2(NC(=O)CN(C)C)CCN(c3ccc(Cl)cc3C#N)CC2)cn1 [Compound 2-31, N-[1-(4-chloro-2-cyanophenyl)-4-[6-(2-ethoxyphenyl)pyridin-3-yl]piperidin-4-yl]-2-(dimethylamino)acetamide] | > 8.00
CCOc1ccccc1-c1ccc(C2(NC(=O)CN(C)C)CCN(c3ccc(C(F)(F)F)cc3C#N)CC2)cn1 [Compound 2-34, N-{1-[2-cyano-4-(trifluoromethyl)phenyl]-4-[6-(2-ethoxyphenyl)pyridin-3-yl]piperidin-4-yl}-2-(dimethylamino)acetamide] | > 8.00
CCOc1ncccc1-c1ncc(C2(C(=O)N[C@@H](C)CNC)CCN(c3ccc(C(F)(F)F)cc3F)CC2)cc1F [Compound 1-315, 4-{2′-ethoxy-3-fluoro-[2,3′-bipyridin]-5-yl}-1-[2-fluoro-4-(trifluoromethyl)phenyl]-N-[(2S)-1-(methylamino)propan-2-yl]piperidine-4-carboxamide] | > 8.00
CN(C)CCCNC(=O)C1(c2ccc(-c3cccn3C)nc2)CCN(c2ccc(C(F)(F)F)cc2C#N)CC1 [Compound 1-207, 1-[2-cyano-4-(trifluoromethyl)phenyl]-N-[3-(dimethylamino)propyl]-4-[6-(1-methyl-1H-pyrrol-2-yl)pyridin-3-yl]piperidine-4-carboxamide] | > 8.00
CCOc1ncccc1-c1ccc(C2(C(=O)N[C@@H]3CCN(C)C3)CCN(c3ccc(C(F)(F)F)cc3C#N)CC2)nn1 [Compound 1-57, 1-[2-cyano-4-(trifluoromethyl)phenyl]-4-[6-(2-ethoxypyridin-3-yl)pyridazin-3-yl]-N-[(3R)-1-methylpyrrolidin-3-yl]piperidine-4-carboxamide] | > 8.00
COc1ncccc1-c1ccc(C2(NC(=O)C3CN(C)C3)CCN(c3ccc(C(F)(F)F)cc3C#N)CC2)cn1 [Compound 2-40, N-{1-[2-cyano-4-(trifluoromethyl)phenyl]-4-{2′-methoxy-[2,3′-bipyridin]-5-yl}piperidin-4-yl}-1-methylazetidine-3-carboxamide] | > 8.00
COc1ncccc1-c1ncc(C2(C(=O)N[C@@H]3CCN(C)C3)CCN(c3ccc(C(F)(F)F)cc3C#N)CC2)cc1F [Compound 1-131, 1-[2-cyano-4-(trifluoromethyl)phenyl]-4-{3-fluoro-2′-methoxy-[2,3′-bipyridin]-5-yl}-N-[(3R)-1-methylpyrrolidin-3-yl]piperidine-4-carboxamide] | > 8.00
Cc1occc1-c1ccc(C2(C(=O)N[C@H]3CCN(C)C3)CCN(c3ccc(C(F)(F)F)cc3C#N)CC2)cn1 [Compound 1-120, 1-[2-cyano-4-(trifluoromethyl)phenyl]-4-[6-(2-methylfuran-3-yl)pyridin-3-yl]-N-[(3S)-1-methylpyrrolidin-3-yl]piperidine-4-carboxamide] | > 8.00
CCOc1ccccc1-c1ncc(C2(C(=O)NCCNC)CCN(c3ccc(C(F)(F)F)cc3F)CC2)cc1F [Compound 1-290, 4-[6-(2-ethoxyphenyl)-5-fluoropyridin-3-yl]-1-[2-fluoro-4-(trifluoromethyl)phenyl]-N-[2-(methylamino)ethyl]piperidine-4-carboxamide] | > 8.00
CCc1ncccc1-c1ccc(C2(C(=O)N[C@@H]3CCN(C)C3)CCN(c3ccc(C(F)(F)F)cc3C#N)CC2)cn1 [Compound 1-118, 1-[2-cyano-4-(trifluoromethyl)phenyl]-4-{2′-ethyl-[2,3′-bipyridin]-5-yl}-N-[(3R)-1-methylpyrrolidin-3-yl]piperidine-4-carboxamide] | > 8.00
CNCCNC(=O)C1(c2cnc(-c3cccnc3OC)c(F)c2)CCN(c2ccc(C(F)(F)F)cc2F)CC1 [Compound 1-301, 4-{3-fluoro-2′-methoxy-[2,3′-bipyridin]-5-yl}-1-[2-fluoro-4-(trifluoromethyl)phenyl]-N-[2-(methylamino)ethyl]piperidine-4-carboxamide] | > 8.00
CCOc1ncccc1-c1ccc(C2(C(=O)N[C@@H]3CCN(C)C3)CCN(c3ccc(C(F)(F)F)cc3C#N)CC2)cc1F [Compound 1-75, 1-[2-cyano-4-(trifluoromethyl)phenyl]-4-[4-(2-ethoxypyridin-3-yl)-3-fluorophenyl]-N-[(3R)-1-methylpyrrolidin-3-yl]piperidine-4-carboxamide] | > 8.00
CC(C)CCn1nccc1-c1ccc(C2(C(=O)N[C@@H]3CCN(C)C3)CCN(c3ccc(C(F)(F)F)cc3C#N)CC2)cn1 [Compound 1-70, 1-[2-cyano-4-(trifluoromethyl)phenyl]-4-{6-[1-(3-methylbutyl)-1H-pyrazol-5-yl]pyridin-3-yl}-N-[(3R)-1-methylpyrrolidin-3-yl]piperidine-4-carboxamide] | 7.00 to 8.00
CN1CC[C@H](NC(=O)C2(c3ccc(-c4ccccn4)nc3)CCN(c3ccc(C(F)(F)F)cc3C#N)CC2)C1 [Compound 1-176, 4-{[2,2′-bipyridin]-5-yl}-1-[2-cyano-4-(trifluoromethyl)phenyl]-N-[(3S)-1-methylpyrrolidin-3-yl]piperidine-4-carboxamide] | 7.00 to 8.00
